Results from ChEMBL document CHEMBL3991601, “The target landscape of clinical kinase drugs” (Science, 2017).
Active and inactive are the calls of the source. On the calls: in the data inactive means no Kd found up to 30 µM.

Tests used:
[1] = molecular target: Phosphatidylethanolamine-binding protein 1 (Homo sapiens, UniProt P30086)
[2] = molecular target: T1, ATP-dependent RNA helicase DHX30 (Homo sapiens, UniProt Q7L2E3)
T1 sequence (Q7L2E3 whole entry): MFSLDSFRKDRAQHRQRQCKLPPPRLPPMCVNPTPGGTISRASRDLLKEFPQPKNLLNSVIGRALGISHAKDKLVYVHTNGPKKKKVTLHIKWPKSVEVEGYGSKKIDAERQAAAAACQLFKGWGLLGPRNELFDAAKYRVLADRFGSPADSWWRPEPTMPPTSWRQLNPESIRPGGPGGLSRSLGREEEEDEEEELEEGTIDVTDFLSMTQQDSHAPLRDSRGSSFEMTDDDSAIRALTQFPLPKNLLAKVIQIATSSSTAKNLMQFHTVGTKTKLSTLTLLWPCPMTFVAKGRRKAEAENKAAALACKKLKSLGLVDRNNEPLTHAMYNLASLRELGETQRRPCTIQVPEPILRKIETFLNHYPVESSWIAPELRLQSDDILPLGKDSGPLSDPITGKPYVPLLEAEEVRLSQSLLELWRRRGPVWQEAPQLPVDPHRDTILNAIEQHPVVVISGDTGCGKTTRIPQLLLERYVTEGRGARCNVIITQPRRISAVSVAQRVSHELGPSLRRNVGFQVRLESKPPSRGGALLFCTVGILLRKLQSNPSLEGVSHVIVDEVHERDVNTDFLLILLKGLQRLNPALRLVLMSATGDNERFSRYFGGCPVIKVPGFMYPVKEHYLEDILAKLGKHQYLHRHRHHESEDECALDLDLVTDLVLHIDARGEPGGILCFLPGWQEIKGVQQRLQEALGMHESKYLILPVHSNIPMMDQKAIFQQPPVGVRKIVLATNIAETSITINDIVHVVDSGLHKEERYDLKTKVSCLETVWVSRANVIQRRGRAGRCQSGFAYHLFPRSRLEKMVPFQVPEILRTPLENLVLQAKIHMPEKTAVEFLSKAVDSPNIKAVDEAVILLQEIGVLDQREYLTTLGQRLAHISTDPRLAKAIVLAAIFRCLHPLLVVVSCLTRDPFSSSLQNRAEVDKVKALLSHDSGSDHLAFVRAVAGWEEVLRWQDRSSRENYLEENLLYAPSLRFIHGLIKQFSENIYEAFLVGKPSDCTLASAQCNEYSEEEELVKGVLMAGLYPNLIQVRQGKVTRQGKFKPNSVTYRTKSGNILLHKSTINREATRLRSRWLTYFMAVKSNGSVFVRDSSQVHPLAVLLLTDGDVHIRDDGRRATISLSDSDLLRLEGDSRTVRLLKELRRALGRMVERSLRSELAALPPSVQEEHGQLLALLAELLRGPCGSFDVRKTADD

[3] = molecular target: Serine/threonine-protein kinase N3 (Homo sapiens, UniProt Q6P5Z2)
Serine/threonine-protein kinase N3, sequence (Q6P5Z2 whole entry): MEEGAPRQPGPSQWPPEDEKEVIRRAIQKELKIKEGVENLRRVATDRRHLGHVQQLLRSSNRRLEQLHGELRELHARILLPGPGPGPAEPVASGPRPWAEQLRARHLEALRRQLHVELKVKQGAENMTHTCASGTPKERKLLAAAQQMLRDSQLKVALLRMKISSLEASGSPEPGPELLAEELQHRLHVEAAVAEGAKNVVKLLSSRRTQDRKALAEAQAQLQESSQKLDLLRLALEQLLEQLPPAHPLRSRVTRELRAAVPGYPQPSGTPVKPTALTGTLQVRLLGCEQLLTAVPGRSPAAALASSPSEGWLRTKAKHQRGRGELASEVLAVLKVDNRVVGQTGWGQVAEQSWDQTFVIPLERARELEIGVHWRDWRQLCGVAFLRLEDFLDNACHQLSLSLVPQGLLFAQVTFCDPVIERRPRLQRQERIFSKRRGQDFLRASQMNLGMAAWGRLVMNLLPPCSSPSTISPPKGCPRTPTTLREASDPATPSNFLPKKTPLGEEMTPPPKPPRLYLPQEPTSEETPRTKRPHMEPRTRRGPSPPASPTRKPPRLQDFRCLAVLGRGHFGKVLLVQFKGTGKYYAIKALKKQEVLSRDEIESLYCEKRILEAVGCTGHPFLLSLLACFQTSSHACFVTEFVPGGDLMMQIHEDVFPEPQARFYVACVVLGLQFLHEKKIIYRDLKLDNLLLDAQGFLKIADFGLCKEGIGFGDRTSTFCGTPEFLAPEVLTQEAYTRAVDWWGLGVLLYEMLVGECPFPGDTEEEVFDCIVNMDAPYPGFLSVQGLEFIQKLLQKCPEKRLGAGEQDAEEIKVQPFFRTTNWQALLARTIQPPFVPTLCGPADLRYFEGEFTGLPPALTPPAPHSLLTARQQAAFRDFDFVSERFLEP

[4] = molecular target: T2, Adenine phosphoribosyltransferase (Homo sapiens, UniProt P07741)
T2 sequence (P07741 whole entry): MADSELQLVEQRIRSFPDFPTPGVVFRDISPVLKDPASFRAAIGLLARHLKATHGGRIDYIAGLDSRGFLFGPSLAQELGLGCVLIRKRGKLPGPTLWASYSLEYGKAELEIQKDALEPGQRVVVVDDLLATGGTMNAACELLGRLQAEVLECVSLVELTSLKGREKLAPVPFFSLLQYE

[5] = molecular target: Serine/threonine-protein kinase PLK1 (Homo sapiens, UniProt P53350)
Serine/threonine-protein kinase PLK1, sequence (P53350 whole entry): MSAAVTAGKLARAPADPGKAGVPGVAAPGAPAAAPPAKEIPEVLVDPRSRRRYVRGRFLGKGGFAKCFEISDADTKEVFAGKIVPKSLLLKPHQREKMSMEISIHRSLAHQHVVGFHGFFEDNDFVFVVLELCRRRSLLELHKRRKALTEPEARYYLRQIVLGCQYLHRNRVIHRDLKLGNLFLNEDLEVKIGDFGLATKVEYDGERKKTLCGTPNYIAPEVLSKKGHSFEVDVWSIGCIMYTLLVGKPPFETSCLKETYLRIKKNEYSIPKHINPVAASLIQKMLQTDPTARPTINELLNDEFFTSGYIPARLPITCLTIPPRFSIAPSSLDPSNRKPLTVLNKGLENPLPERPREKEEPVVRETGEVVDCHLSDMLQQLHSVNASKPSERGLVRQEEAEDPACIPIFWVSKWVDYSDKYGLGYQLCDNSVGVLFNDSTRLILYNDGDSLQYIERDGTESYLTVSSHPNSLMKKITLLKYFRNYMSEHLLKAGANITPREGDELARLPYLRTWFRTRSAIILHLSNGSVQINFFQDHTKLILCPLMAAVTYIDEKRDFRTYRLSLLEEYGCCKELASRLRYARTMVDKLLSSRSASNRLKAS

[6] = molecular target: T3, Protein kinase C zeta type (Homo sapiens, UniProt Q05513)
T3 sequence (Q05513 whole entry): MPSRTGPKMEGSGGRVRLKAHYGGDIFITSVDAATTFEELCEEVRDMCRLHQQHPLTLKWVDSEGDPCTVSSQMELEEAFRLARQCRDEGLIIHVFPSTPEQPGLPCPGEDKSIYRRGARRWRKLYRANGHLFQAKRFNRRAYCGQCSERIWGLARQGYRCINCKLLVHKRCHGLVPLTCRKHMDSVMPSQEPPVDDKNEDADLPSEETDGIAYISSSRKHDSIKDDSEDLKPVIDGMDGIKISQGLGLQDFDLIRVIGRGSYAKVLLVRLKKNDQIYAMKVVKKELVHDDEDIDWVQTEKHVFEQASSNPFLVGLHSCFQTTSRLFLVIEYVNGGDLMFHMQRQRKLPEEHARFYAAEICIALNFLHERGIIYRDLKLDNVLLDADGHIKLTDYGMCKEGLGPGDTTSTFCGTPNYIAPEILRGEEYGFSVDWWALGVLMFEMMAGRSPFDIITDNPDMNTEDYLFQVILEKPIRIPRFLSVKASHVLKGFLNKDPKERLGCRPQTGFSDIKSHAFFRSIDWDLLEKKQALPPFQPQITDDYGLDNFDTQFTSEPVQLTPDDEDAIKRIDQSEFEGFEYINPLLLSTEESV

Phosphatidylethanolamine-binding protein 1, sequence (P30086 whole entry): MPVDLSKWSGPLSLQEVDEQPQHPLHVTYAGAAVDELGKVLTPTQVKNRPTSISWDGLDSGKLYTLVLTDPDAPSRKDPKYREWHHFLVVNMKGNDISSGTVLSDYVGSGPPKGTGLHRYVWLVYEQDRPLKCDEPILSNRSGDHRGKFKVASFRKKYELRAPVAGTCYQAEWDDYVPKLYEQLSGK

SMILES	Kd [1]	Kd [2]	Kd [3]	Kd [4]	Kd [5]	Kd [6]
Cn1ncc(Cl)c1-c1cc(C(=O)N[C@H](CN)Cc2cccc(F)c2)sc1Cl [AFURESERTIB]	> 30 µM (inactive)	> 30 µM (inactive)	–	–	–	–
COC(=O)N[C@@H](C)CNc1nccc(-c2cn(C(C)C)nc2-c2cc(Cl)cc(NS(C)(=O)=O)c2F)n1 [ENCORAFENIB]	> 30 µM (inactive)	> 30 µM (inactive)	> 30 µM (inactive)	> 30 µM (inactive)	–	–
CCCS(=O)(=O)Nc1ccc(F)c(C(=O)c2c[nH]c3ncc(-c4ccc(Cl)cc4)cc23)c1F [VEMURAFENIB]	> 30 µM (inactive)	–	> 30 µM (inactive)	> 30 µM (inactive)	> 30 µM (inactive)	–
CNS(=O)(=O)Nc1nccc(Cc2c(C)c3ccc(Oc4ncccn4)cc3oc2=O)c1F [AVUTOMETINIB]	> 30 µM (inactive)	> 30 µM (inactive)	> 30 µM (inactive)	> 30 µM (inactive)	–	–
Cc1cn(-c2cc(NC(=O)c3ccc(C)c(Nc4nccc(-c5cccnc5)n4)c3)cc(C(F)(F)F)c2)cn1 [NILOTINIB]	> 30 µM (inactive)	> 30 µM (inactive)	> 30 µM (inactive)	–	–	> 30 µM (inactive)
CN1N=C(N)c2cn([C@@H]3O[C@H](COP(=O)(O)O)[C@@H](O)[C@H]3O)c3ncnc1c23 [TRICIRIBINE PHOSPHATE]	> 30 µM (inactive)	> 30 µM (inactive)	–	> 30 µM (inactive)	–	–
O=c1sn(-c2cccc3ccccc23)c(=O)n1Cc1ccccc1 [TIDEGLUSIB]	–	–	> 30 µM (inactive)	> 30 µM (inactive)	–	–
CCc1cnn2c(NCc3ccc[n+]([O-])c3)cc(N3CCCC[C@H]3CCO)nc12 [DINACICLIB]	> 30 µM (inactive)	–	> 30 µM (inactive)	> 30 µM (inactive)	–	> 30 µM (inactive)
C=CC(=O)N1CCC(Oc2cc3c(Nc4ccc(Cl)c(Cl)c4F)ncnc3cc2OC)CC1 [POZIOTINIB]	–	> 30 µM (inactive)	–	–	–	> 30 µM (inactive)
CC(C)Nc1cc(-c2c[nH]c(C(=O)N[C@H](CO)c3cccc(Cl)c3)c2)c(Cl)cn1 [ULIXERTINIB]	–	–	–	> 30 µM (inactive)	> 30 µM (inactive)	–
O=C(Nc1cccc(Cl)c1)Nc1ncc(CCNc2ncnc3ccsc23)s1 [SNS-314]	> 30 µM (inactive)	> 30 µM (inactive)	> 30 µM (inactive)	> 30 µM (inactive)	–	–
C[C@@H]1CN(Cc2ccc(F)cc2)[C@@H](C)CN1C(=O)c1cc2c(C(=O)C(=O)N(C)C)cn(C)c2cc1Cl [TALMAPIMOD]	> 30 µM (inactive)	> 30 µM (inactive)	> 30 µM (inactive)	> 30 µM (inactive)	–	> 30 µM (inactive)
C1=C/COCc2cc(ccc2OCCN2CCCC2)Nc2nccc(n2)-c2cccc(c2)COC/1 [PACRITINIB]	> 30 µM (inactive)	–	–	> 30 µM (inactive)	–	–
CNC(=O)c1ccc(-c2cnc3ncc(Cc4ccc5ncccc5c4)n3n2)cc1F [CAPMATINIB]	> 30 µM (inactive)	> 30 µM (inactive)	> 30 µM (inactive)	> 30 µM (inactive)	–	> 30 µM (inactive)
CNC(=O)CN1CCC(Oc2cc3c(Nc4cccc(Cl)c4F)ncnc3cc2OC)CC1 [SAPITINIB]	–	–	> 30 µM (inactive)	–	–	> 30 µM (inactive)
CN1CCN(c2ccc3nc(-c4c(N)c5c(F)cccc5[nH]c4=O)[nH]c3c2)CC1 [DOVITINIB]	–	> 30 µM (inactive)	–	–	–	> 30 µM (inactive)
COc1cc2nccc(Oc3ccc(NC(=O)NC4CC4)c(Cl)c3)c2cc1C(N)=O [LENVATINIB]	> 30 µM (inactive)	–	> 30 µM (inactive)	> 30 µM (inactive)	–	–
N[C@@H]1CCCN(c2c(/C=C3\SC(=O)NC3=O)cccc2-c2ccccc2)C1	> 30 µM (inactive)	> 30 µM (inactive)	–	> 30 µM (inactive)	> 30 µM (inactive)	–
Nc1nc(N)c2nc(-c3cccc(O)c3)c(-c3cccc(O)c3)nc2n1 [TG100-115]	–	> 30 µM (inactive)	> 30 µM (inactive)	–	–	> 30 µM (inactive)
CCS(=O)(=O)N1CC(CC#N)(n2cc(-c3ncnc4[nH]ccc34)cn2)C1 [BARICITINIB]	> 30 µM (inactive)	> 30 µM (inactive)	–	> 30 µM (inactive)	–	–
COc1cc(OC)c(/C=C/S(=O)(=O)Cc2ccc(OC)c(NCC(=O)O)c2)c(OC)c1 [RIGOSERTIB]	–	> 30 µM (inactive)	> 30 µM (inactive)	–	–	> 30 µM (inactive)
Cc1c(F)cc(C(=O)NC2CC2)cc1-c1ccc(C(=O)NCC(C)(C)C)cn1 [LOSMAPIMOD]	–	> 30 µM (inactive)	> 30 µM (inactive)	> 30 µM (inactive)	> 30 µM (inactive)	–
C[C@@H](c1ccc2nccn2c1)n1nnc2ncc(-c3cnn(C)c3)nc21 [SAVOLITINIB]	> 30 µM (inactive)	–	–	> 30 µM (inactive)	–	–
COC(=O)[C@@]1(O)C[C@H]2O[C@]1(C)n1c3ccccc3c3c4c(c5c6ccccc6n2c5c31)C(=O)NC4 [K-252A]	–	> 30 µM (inactive)	> 30 µM (inactive)	–	–	–
CN(C)C(=O)c1cc2cnc(Nc3ccc(N4CCNCC4)cn3)nc2n1C1CCCC1 [RIBOCICLIB]	> 30 µM (inactive)	> 30 µM (inactive)	–	–	–	–
Cc1cc2c(F)c(Oc3ncnn4cc(OC[C@@H](C)OC(=O)[C@H](C)N)c(C)c34)ccc2[nH]1 [BRIVANIB ALANINATE]	> 30 µM (inactive)	> 30 µM (inactive)	> 30 µM (inactive)	> 30 µM (inactive)	–	> 30 µM (inactive)

Next, values leading:

Kd [1]	Kd [2]	Kd [3]	Kd [4]	Kd [5]	Kd [6]	SMILES
> 30 µM (inactive)	> 30 µM (inactive)	–	> 30 µM (inactive)	> 30 µM (inactive)	–	CCN1CCN(Cc2ccc(-c3cc4c(N[C@H](C)c5ccccc5)ncnc4[nH]3)cc2)CC1 [AEE-788]
–	> 30 µM (inactive)	> 30 µM (inactive)	–	–	> 30 µM (inactive)	O=C(O)[C@]1(Cc2cccc(Nc3nccs3)n2)CC[C@@H](Oc2cccc(Cl)c2F)CC1 [MK-5108]
> 30 µM (inactive)	–	–	–	–	–	COc1cc(N2CCC(N3CCN(C)CC3)CC2)ccc1Nc1ncnc(Nc2ccccc2S(=O)(=O)C(C)C)n1 [ASP-3026]
> 30 µM (inactive)	–	> 30 µM (inactive)	> 30 µM (inactive)	–	–	Cc1nc(N)sc1-c1ccnc(Nc2ccc(N3CCOCC3)cc2)n1 [CYC-116]
> 30 µM (inactive)	> 30 µM (inactive)	> 30 µM (inactive)	–	–	–	CNC(=O)c1ccc(C)c(-n2c(C)cc(OCc3ccc(F)cc3F)c(Br)c2=O)c1 [PH-797804]
> 30 µM (inactive)	> 30 µM (inactive)	–	> 30 µM (inactive)	–	–	Cc1cc(Nc2cc(N3CCN(C)CC3)nc(/C=C/c3ccccc3)n2)n[nH]1 [ENMD-2076]
> 30 µM (inactive)	–	–	> 30 µM (inactive)	–	–	Cn1cc(-c2ccc(F)c(C(F)(F)F)c2)nc1C1CCN(c2ncnc3[nH]ncc23)CC1 [LY-2584702]
> 30 µM (inactive)	–	–	> 30 µM (inactive)	–	> 30 µM (inactive)	CCn1c(-c2nonc2N)nc2c(C#CC(C)(C)O)ncc(OC[C@H]3CCCNC3)c21 [GSK-690693]
> 30 µM (inactive)	> 30 µM (inactive)	> 30 µM (inactive)	> 30 µM (inactive)	–	> 30 µM (inactive)	COc1ccc(-c2ccc3c(N4CCOC[C@@H]4C)nc(N4CCOC[C@@H]4C)nc3n2)cc1CO [AZD-8055]
